Inhibition and fraction unbound data for two compounds are collected here from article PMC6886544.

For one data set, the target named is ABL2 (Homo sapiens, UniProt P42684). As to the kind of experiment: SelectScreen kinase profiling, ABL2. The data set is classed as biochemical. To be noted: mean ± SD of one measurement in duplicates. The method, then: Kinase profiling of compound 17a at a concentration of 1 µM generated with the SelectScreen® Profiling Service from Life Technologies.
Figure S2. Kinase profiling of compound 17a, Illustration as waterfall plot. 9 Kinases harboring a Cysteine isostructural to Cys797 in EGFR are highlighted
Kinase % inhibition Kinase % inhibition […]
aValues are the mean ± SD of one measurement in duplicates; bKinases harboring a Cysteine isostructural to Cys797 […]
(1 picture or pasted object on this page, not shown here)

Data set [1] is described as follows: Plasma protein binding, human. The data set is classed as in vitro ADME. The conditions noted are these: equilibrium dialysis, 37 °C. The method, then:
Assessment of plasma protein binding was measured by equilibrium dialysis by incubating plasma
based determination of final compound concentrations. […]

ABL2, sequence (P42684 whole entry): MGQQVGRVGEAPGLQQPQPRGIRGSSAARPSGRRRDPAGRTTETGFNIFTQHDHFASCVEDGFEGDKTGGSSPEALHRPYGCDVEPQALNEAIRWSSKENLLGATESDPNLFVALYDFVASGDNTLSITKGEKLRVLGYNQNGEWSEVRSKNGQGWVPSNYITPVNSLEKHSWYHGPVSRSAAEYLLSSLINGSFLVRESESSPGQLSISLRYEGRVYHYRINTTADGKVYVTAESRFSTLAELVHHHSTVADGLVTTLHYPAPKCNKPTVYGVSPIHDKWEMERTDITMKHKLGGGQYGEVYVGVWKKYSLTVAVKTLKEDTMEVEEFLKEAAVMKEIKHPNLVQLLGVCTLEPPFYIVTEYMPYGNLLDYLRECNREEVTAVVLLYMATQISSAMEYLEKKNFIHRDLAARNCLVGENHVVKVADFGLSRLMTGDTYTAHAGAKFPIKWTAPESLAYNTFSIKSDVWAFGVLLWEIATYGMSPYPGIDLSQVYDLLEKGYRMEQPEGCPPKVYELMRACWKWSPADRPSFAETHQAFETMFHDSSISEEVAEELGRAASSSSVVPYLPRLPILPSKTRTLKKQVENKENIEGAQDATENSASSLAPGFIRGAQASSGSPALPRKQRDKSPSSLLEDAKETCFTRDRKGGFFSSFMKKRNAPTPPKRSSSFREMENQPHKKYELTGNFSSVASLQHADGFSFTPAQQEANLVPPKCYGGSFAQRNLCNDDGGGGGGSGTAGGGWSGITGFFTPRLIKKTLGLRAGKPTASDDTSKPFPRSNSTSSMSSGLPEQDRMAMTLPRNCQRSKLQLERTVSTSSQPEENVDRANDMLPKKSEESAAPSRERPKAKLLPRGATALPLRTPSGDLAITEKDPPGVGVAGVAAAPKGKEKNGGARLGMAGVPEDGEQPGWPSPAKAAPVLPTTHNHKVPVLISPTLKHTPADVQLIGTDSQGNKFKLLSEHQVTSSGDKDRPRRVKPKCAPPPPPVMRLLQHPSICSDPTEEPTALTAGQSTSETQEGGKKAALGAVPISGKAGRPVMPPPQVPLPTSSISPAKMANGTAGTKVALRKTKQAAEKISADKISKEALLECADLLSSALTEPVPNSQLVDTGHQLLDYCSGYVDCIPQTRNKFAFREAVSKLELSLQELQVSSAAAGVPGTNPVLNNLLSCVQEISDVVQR

Consider `C=CC(=O)Nc1cccc(-c2c(-c3ccc(CN4CCN(C)CC4)cc3)[nH]c3ncnc(OC)c23)c1` [Compound 17a], for which, on ABL2, the inhibition at 1 µM came out at 86%.
In the case of `C=CC(=O)Nc1cccc(-c2c(-c3ccc(N4CCN(C)CC4)cc3)[nH]c3ncnc(OCC(C)C)c23)c1` [Compound 19h], the unbound share (fraction unbound) at 6 h, 5 µM in data set [1] was determined as 0.001.
